Our source for the Kd values is article PMC12541610 (Acta Pharmaceutica Sinica. B, 2025).

In the assay the target is ATP synthase F1 subunit alpha (ATP5A1) (Mus musculus, UniProt Q03265). Briefly: intrinsic fluorescence titration of purified protein. In kind it is binding.

Each structure is given as a SMILES string.

Sequence of ATP synthase F1 subunit alpha (ATP5A1) (Q03265 whole entry): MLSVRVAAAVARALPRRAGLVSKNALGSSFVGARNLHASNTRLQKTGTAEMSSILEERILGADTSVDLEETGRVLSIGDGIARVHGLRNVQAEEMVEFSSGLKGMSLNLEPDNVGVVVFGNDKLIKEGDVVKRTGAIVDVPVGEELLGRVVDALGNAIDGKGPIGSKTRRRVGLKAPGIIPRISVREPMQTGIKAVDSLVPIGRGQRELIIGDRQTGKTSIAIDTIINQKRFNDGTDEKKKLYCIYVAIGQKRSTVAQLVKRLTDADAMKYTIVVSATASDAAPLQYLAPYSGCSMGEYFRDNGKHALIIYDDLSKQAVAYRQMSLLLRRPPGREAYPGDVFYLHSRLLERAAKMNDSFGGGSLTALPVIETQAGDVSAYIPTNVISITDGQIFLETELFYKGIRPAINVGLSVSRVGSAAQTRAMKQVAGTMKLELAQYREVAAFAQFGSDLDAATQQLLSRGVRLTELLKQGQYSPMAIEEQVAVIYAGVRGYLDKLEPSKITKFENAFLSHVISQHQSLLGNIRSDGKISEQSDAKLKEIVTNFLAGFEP

The Kd is a measure of binding affinity in units of concentration. A high value points to a looser complex. In turn, `C=C(C)[C@@H]1CCC(C)=C[C@H]1c1c(O)cc(CCCCC)cc1O` [Cannabidiol] yielded a Kd of 4.9 ± 1.2 µM.
